For test [1], the target named is T1, Serine/threonine-protein kinase Nek2 (Homo sapiens) (UniProt P51955).
T1 sequence (whole entry): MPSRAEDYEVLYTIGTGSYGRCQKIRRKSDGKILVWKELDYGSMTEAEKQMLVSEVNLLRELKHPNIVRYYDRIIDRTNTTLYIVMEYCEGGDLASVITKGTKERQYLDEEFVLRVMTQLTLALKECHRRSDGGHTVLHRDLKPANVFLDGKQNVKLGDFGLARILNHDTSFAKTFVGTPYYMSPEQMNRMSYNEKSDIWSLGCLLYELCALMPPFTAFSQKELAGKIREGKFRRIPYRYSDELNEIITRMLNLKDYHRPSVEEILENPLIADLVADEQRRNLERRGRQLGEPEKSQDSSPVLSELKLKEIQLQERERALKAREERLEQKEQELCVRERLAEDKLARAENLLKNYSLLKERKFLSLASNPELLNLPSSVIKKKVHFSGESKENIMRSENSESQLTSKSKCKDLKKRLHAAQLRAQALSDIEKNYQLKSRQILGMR
Briefly: Inhibition of NEK2 at 1 uM.

Test [2] concerns the target Mitogen-activated protein kinase kinase kinase 8 (Homo sapiens, UniProt P41279). Briefly: Inhibition of TPL2.
Test [3] can be described thus: Inhibition of P38 at 1 uM.
The target in test [4] is Epidermal growth factor receptor (Homo sapiens) (UniProt P00533). As to the kind of experiment: Inhibition of EGFR at 1 uM.
The target in test [5] is Proto-oncogene tyrosine-protein kinase Src (Homo sapiens) (UniProt P12931). As to the kind of experiment: Inhibition of SRC at 1 uM.
The target in test [6] is T2, Serine/threonine-protein kinase Chk1 (Homo sapiens) (UniProt O14757).
T2 sequence (whole entry): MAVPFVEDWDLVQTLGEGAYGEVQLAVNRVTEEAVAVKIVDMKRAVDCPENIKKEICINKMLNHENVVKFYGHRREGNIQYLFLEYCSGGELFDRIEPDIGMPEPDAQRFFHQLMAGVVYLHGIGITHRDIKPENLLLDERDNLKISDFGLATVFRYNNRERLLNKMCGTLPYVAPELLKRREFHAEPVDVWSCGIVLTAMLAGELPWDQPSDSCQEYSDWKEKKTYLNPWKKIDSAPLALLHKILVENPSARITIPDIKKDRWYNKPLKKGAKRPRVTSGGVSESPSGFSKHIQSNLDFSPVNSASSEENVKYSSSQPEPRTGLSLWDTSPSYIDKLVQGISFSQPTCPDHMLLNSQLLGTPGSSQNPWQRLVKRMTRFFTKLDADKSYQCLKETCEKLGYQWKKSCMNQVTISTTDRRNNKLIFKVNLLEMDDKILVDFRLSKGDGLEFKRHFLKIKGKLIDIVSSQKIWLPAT
Briefly: Inhibition of CHK1 at 1 uM.

The target of test [7] is Rho-associated protein kinase 1 (Homo sapiens) (UniProt Q13464). As to the kind of experiment: Inhibition of ROCK1 at 1 uM.

The record followed here is ChEMBL document CHEMBL1833910, “Identification and SAR of a new series of thieno[3,2-d]pyrimidines as Tpl2 kinase inhibitors” (Bioorg Med Chem Lett, 2011).

Sequence of Epidermal growth factor receptor (Homo sapiens) (P00533 whole entry): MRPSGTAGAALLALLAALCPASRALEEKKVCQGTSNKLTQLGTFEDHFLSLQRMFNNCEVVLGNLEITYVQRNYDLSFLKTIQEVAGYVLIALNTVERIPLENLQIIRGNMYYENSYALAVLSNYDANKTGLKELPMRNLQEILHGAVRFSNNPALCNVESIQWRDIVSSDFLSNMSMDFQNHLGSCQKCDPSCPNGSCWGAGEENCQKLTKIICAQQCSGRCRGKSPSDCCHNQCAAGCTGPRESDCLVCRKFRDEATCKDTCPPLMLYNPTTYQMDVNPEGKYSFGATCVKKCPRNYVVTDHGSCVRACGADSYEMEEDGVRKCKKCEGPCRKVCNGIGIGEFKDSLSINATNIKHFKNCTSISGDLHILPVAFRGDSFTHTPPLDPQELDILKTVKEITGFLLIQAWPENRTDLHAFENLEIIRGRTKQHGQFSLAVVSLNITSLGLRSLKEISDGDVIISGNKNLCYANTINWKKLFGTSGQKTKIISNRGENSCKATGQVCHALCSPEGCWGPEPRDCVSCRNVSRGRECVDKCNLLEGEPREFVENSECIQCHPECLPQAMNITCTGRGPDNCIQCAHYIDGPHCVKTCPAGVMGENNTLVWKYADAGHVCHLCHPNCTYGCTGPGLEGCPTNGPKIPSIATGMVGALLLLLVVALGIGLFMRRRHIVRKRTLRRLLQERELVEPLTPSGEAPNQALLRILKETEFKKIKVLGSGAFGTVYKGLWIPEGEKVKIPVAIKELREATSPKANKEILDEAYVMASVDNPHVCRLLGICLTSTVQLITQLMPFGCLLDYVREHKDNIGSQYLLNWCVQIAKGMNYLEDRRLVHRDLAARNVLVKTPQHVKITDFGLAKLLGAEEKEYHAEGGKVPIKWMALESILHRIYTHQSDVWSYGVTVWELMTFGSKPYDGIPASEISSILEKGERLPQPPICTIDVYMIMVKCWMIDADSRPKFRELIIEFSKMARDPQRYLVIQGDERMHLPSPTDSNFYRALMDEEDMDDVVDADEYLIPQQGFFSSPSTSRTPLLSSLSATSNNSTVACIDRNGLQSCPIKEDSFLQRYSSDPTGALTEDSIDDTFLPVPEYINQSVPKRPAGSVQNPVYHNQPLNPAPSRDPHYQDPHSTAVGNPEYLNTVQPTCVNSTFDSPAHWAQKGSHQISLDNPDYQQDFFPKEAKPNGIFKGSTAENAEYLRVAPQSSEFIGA
Sequence of Rho-associated protein kinase 1 (Homo sapiens) (Q13464 whole entry, looked up): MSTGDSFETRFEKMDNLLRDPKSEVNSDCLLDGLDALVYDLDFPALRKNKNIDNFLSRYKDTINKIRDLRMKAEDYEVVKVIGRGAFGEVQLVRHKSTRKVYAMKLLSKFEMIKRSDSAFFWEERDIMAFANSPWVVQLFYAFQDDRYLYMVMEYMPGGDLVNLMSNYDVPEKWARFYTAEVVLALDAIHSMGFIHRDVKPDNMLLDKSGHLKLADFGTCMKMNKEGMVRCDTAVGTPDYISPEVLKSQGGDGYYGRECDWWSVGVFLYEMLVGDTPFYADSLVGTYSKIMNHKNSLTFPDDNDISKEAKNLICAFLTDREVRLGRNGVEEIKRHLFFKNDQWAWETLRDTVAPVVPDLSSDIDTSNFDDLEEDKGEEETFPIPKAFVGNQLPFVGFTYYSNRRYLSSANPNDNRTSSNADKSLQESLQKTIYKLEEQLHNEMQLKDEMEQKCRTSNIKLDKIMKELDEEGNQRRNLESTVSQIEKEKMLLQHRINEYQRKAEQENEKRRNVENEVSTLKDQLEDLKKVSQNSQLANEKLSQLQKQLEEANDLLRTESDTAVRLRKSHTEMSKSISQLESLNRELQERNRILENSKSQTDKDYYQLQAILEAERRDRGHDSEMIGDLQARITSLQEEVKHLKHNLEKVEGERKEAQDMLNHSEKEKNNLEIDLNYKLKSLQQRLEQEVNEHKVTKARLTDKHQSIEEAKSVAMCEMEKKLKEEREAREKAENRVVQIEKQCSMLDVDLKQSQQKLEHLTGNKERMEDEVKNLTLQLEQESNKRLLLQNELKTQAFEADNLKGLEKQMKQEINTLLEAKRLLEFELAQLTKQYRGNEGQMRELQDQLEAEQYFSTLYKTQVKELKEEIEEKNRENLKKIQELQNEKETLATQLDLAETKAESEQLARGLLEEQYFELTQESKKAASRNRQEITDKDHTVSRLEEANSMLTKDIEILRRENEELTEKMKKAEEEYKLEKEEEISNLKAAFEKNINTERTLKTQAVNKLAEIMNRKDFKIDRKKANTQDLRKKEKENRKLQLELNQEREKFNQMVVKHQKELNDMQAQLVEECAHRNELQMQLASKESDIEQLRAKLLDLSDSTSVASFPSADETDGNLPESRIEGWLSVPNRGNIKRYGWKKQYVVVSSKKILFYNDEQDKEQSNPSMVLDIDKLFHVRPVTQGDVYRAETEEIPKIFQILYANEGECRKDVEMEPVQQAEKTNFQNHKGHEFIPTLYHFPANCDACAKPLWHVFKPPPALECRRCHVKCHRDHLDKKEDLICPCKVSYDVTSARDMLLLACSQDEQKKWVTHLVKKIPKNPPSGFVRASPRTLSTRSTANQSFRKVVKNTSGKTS
Sequence of Mitogen-activated protein kinase kinase kinase 8 (P41279 whole entry): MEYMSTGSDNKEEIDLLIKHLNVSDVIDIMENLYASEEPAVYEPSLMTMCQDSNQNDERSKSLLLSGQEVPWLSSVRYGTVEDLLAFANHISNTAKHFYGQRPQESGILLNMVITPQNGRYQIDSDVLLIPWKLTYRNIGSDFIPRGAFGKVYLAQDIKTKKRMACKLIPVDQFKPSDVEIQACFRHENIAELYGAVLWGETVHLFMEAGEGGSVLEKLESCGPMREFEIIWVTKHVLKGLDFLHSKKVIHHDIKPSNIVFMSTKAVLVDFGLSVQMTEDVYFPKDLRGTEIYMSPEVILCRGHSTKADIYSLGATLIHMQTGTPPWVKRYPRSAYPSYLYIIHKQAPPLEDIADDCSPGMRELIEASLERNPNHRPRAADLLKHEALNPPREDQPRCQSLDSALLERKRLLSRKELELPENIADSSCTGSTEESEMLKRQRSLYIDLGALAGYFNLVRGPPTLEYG
Sequence of Proto-oncogene tyrosine-protein kinase Src (Homo sapiens) (P12931 2-536 limits assumed): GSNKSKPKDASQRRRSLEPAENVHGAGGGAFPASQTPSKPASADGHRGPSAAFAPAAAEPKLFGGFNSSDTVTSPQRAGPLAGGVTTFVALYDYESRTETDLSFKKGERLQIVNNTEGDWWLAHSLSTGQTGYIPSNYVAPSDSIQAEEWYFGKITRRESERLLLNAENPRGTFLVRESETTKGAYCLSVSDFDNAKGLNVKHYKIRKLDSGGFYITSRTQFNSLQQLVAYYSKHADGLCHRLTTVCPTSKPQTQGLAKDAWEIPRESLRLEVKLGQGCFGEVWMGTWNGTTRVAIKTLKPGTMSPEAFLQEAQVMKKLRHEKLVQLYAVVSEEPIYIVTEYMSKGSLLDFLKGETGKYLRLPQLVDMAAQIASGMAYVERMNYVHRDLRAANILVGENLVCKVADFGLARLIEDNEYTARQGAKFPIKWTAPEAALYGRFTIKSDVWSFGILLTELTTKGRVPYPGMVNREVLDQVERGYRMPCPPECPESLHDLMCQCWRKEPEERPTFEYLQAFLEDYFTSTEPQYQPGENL

Take `O=C(O)COc1ncnc2cc(-c3ccc4[nH]ncc4c3)sc12`: the inhibition in test [1] is -3.5%; in test [3] it was -0.8%; in test [4], -1.3%; in test [5], 29%; in test [6], -7.8%; in test [7], 26%. For the same compound, in test [2], the IC50 was found to be 1000 nM.

As to `CC(=O)Nc1ccc(-c2cc3ncnc(SCC(=O)O)c3s2)cc1`, the inhibition in test [1] was 3.3%; in test [3], 5.3%; in test [4] it was -3.8%; in test [5] it was 17%; in test [6], -0.8%; in test [7], 17%. For the same compound, the half-inhibitory concentration (IC50) in test [2] is 180 nM.
